According to a melting point compilation (Tetko et al.; mined from patent text by program, amines drawn as free bases though some values may be those of a salt):

`COc1cc(Nc2c(C#N)cnc3cc(I)sc23)cc(OC)c1OC` gave a melting point of 254 to 256 °C.
Work on `Cn1ncc(C(N)=O)c1-c1ccc([N+](=O)[O-])o1` yielded a melting point of 174 to 176 °C.
With `CCOC(=O)c1cccc(NC(=O)CN2C(=O)c3ccccc3C2=O)c1` the melting point was 215 °C.
Compound `COc1ccc(C(CN(C)C)C2(O)CCCCC2)cc1` (centres undefined) has a melting point of 78.3 to 79.5 °C.
Compound `CC(=O)c1ccc2c(c1)oc(=O)n2CCCCl` has a melting point of 100 to 103 °C.
Work on `COc1ccccc1N1CCN([C@H]2CC[C@H](c3ccc(-c4ccccc4)cc3)CC2)CC1` yielded a melting point of 220 to 225 °C.
Compound `CCOC(=O)c1[nH]ccc1OCC` has a melting point of 81 to 83 °C.
With `Nc1nc2c(Cc3cccnc3)c[nH]c2c(=O)[nH]1` the melting point was greater than 300 °C.
Compound `CC(=O)OCCOc1ccc2oc3cc(-c4nnn[nH]4)ccc3c(=O)c2c1` has a melting point of 216 to 218 °C.
For `CC(C(=O)NCC(COC(=O)C(C)(C)C)Cc1ccc(C(C)(C)C)cc1)c1ccc(NS(C)(=O)=O)cc1` (centres undefined), the melting point was 97 to 100 °C.
`CS(=O)c1cc(OCC(O)CNC2CCN(c3ccc(NS(=O)(=O)c4ccc(Br)cc4)cn3)CC2)ccc1O` (centres undefined) gave a melting point of 147 °C.
Work on `Cc1ccccc1CC(=NC#N)NC(NC(=O)Cc1ccc(F)c(F)c1)C(C)(C)C` (centres undefined) yielded a melting point of 178 to 179 °C.
`CC1CCCC(C)N1Cc1nc(-c2ncn3c2C2CCN2C(=O)c2c(Cl)cccc2-3)no1` (centres undefined) gave a melting point of 233 to 236 °C.
For `CCOc1cc2c(cc1OC(C)=O)C(=O)CC1C2CCC2(C)C(OC(C)=O)CCC12` (centres undefined), the melting point was 195 °C.
Compound `O=C(O)c1ccc(Oc2ccc3c(c2)CCN(C2CCN(C4CCC4)CC2)C3=O)cc1` has a melting point of 255 to 256 °C.
Compound `CNS(=O)(=O)c1ccc(-c2cnc3[nH]c(CCc4cc(OC)ccn4)nc3c2)cc1` has a melting point of 225 to 227 °C.
Compound `CC(C)Cn1c(CNC(=O)OC(C)(C)C)c(-c2ccc(F)cc2)c2cc(OCC(N)=O)ccc2c1=O` has a melting point of 218 to 219 °C.
With `CCC1SCCCN1C(=S)Nc1cccc(Cl)c1` (centres undefined) the melting point was 69 to 73 °C.
For `Cc1cc(-c2c(-c3ccc(S(N)(=O)=O)cc3)cnn(-c3cccc(Cl)c3)c2=O)ccc1F`, the melting point was 187 to 188 °C.
Compound `Cc1oc(-c2ccccc2)nc1CCc1ccc(COc2ccccc2CC(=O)O)cc1` has a melting point of 130 to 131 °C.
`CC(=O)N1CCc2c(Br)ccc([N+](=O)[O-])c2C1` gave a melting point of 159 to 161 °C.
Work on `CCOC(=O)C1C(=O)NC(=O)C(C#N)C12CCCCC2` (centres undefined) yielded a melting point of 167 to 170 °C.
`O=C(O)CCCC(=O)c1cccc([N+](=O)[O-])c1` gave a melting point of 135 to 137 °C.
For `CCCc1cc(-c2cccs2)n[nH]c1=O`, the melting point was 171 to 174 °C.
For `O=S(=O)(Nc1cc(-c2ncc(C(F)(F)F)cc2Cl)ccc1Cl)c1ccc(Cl)cc1`, the melting point was 156 to 157 °C.
With `O=C(O)CCN=c1sc2ccccc2s1` the melting point was 203 to 204 °C.
`Cc1nc(N2CCC(c3ccccc3)CC2)c([N+](=O)[O-])c(=O)[nH]1` showed a melting point of 210 to 213 °C.
With `CC(C)(C)NC(=O)c1nn(-c2ccc(Br)cc2)c2c1[C@@H]1CC[C@H]2C1` the melting point was 148 to 149 °C.
In the case of `O=C(O)CCNC(=O)[C@H](Cc1ccc(-c2ccccc2)cc1)NCP(=O)(O)Oc1ccccc1`, the melting point is reported as 222 to 223 °C.
For `NC1CCc2ccccc2N(CC(=O)OCc2ccccc2)C1=O` (centres undefined), the melting point was 105 to 107 °C.
`CS(=O)(=O)OCc1cc(I)cc(I)c1I` showed a melting point of 130 to 133 °C.
With `N#Cc1cccc(S(=O)(=O)N2c3ccccc3C[C@H]2C(=O)NCCc2ccccc2)c1` the melting point was 50 °C.
`O=C(O)c1ncc(Br)cc1Br` showed a melting point of 170 to 171 °C.
For `Cc1oc(C)c(C(=O)OC2CC(C)(C)N(C)C(C)(C)C2)c1C`, the melting point was 55 to 56 °C.
`FC(F)(F)Oc1ccc(-n2cnc3ccc(-c4nnc(N5CCOCC5)o4)cc32)cc1` showed a melting point of 202 to 203 °C.
With `Cc1cc(Cl)nc2ccc(Br)cc12` the melting point was 139 to 140 °C.
For `Oc1cccc2c1C[C@@H](O)[C@H](O)C2` (relative stereo), the melting point was 183 to 184 °C.
Work on `CNC(=O)c1ccc(C=CC(=O)Nc2cccc(-c3ccc(C)c(CO)c3C)c2)cc1` yielded a melting point of 272 to 277 °C.
With `Cc1cc(C)cc(NC(=O)Cc2ccc(OC3(C(=O)O)CCOCC3)cc2)c1` the melting point was 186 to 188 °C.
Compound `NC(=O)c1cnc2c(NC(=O)c3c(Cl)cccc3Cl)cccc2c1` has a melting point greater than 250 °C.
For `CCOC(=O)c1c(C)cc2nc(C(C)C)n(-c3ccccc3Cl)c(=O)c2c1C`, the melting point was 115 to 116 °C.
Work on `C=C(C)N(C(=C)C)C(=O)C(C)Oc1cc(-c2ccccc2)nc2ccccc12` (centres undefined) yielded a melting point of 110 °C.
`CC(=O)n1[nH]c(=O)n(-c2ccc(Cl)cc2)c1=O` showed a melting point of 201 to 203 °C.
For `Nc1cc(CO)cc(Nc2c3ccccc3nc3occc23)c1`, the melting point was 236 to 237 °C.
Compound `Cc1cc(C)c2occ(-c3ccccc3)c2c1` has a melting point of 131 to 132 °C.
`CSc1nc(Cl)nc2sc(C)cc12` showed a melting point of 111 to 112 °C.
Work on `COc1cn(-c2ccc(N3CC(F)C3)cc2F)nc(-c2ccnn2-c2ccccc2)c1=O` yielded a melting point of 162 to 163 °C.
In the case of `Cc1c(Br)c2cnnc(OCc3ccc(F)cc3)c2n1Cc1ccccc1`, the melting point is reported as 128 to 130 °C.
Compound `Cn1nc(-c2cc(C=O)c(Cl)cc2Cl)c(Cl)c1OC(F)F` has a melting point of 138 °C.
In the case of `CCC(C)(Oc1ccc(CC(=O)c2ccc3c(c2)CCC3)cc1)C(=O)O` (centres undefined), the melting point is reported as 160 to 161 °C.
Compound `CCn1cc(C(=O)O)c(=O)c2cc(F)c(N3CCC(N)C3)c(C)c21` (centres undefined) has a melting point of 187 to 194 °C.
Compound `CCN(c1ccc(Cl)cc1C(=O)O)S(=O)(=O)c1ccc(C)cc1` has a melting point of 163 to 165 °C.
`CC(C)(C)c1cc(SC2CCN(S(=O)(=O)c3ncc(CO)[nH]3)CC2)cc(C(C)(C)C)c1O` gave a melting point of 122 to 123 °C.
In the case of `CCOC(=O)c1cc(=O)c2cc(C(C)(C)C)cc(C(C)(C)C)c2o1`, the melting point is reported as 130 to 132 °C.
With `CCN1CCCC(NC(=O)c2ccc(Nc3ccnc4c(C(F)(F)F)cccc34)cc2)C1` (centres undefined) the melting point was 177 to 178 °C.
`Brc1ccc(SCCOCCSc2ccc(Br)cc2)cc1` gave a melting point of 53 °C.
`COc1cccc2c1C(=O)c1c(OC)cc(-c3nc4ccccc4n3C)cc1C2=O` gave a melting point of 283 to 284 °C.
With `CCCC=C(c1ccccc1N1CCCCC1)C(C(N)=O)c1ccc(C(=O)OCC)cc1` (centres undefined) the melting point was 94 to 97 °C.
Work on `Cc1ccc(S(=O)(=O)NCCCCOc2ccc([N+](=O)[O-])cc2)cc1` yielded a melting point of 87 to 88 °C.
Compound `COc1ccc(Oc2c(Br)cc(C=O)cc2[N+](=O)[O-])cc1Cc1ccc(=O)[nH]n1` has a melting point of 188 to 190 °C.
`COc1ccc(OCc2ccc3ccccc3n2)cc1` showed a melting point of 79 to 80 °C.
`CC1Cc2cc3c(cc2C(c2ccc([N+](=O)[O-])cc2)=NN1c1nnn[nH]1)OCO3` (centres undefined) showed a melting point of 263 to 264 °C.
For `C=C(CCCCC)C(=O)c1ccc(OCC(=O)O)c(Cl)c1Cl`, the melting point was 103 to 106 °C.
In the case of `O=C(CBr)Nc1ccc(F)cc1C(=O)O`, the melting point is reported as 191 to 192 °C.
In the case of `COc1cc2c(c3c1OC(C)(C)C3)C(c1cccc(NC(=O)c3ccc(CP(=O)(O)O)cc3)c1)=NC(C)(C)C2`, the melting point is reported as 237 to 241 °C.
`CNC(C)Cc1ccc(CCCC(=O)O)cc1` (centres undefined) showed a melting point of 170 to 172 °C.
Compound `Cc1nccn1Cc1ccc(N)cc1C(F)(F)F` has a melting point of 146 to 147 °C.
`CCC(=O)N[C@H]1CC[C@H](CCN2CCC(c3cccc4c3CCO4)CC2)CC1` showed a melting point of 192 °C.
In the case of `CCOC(=O)C(=O)Nc1cc(=O)c2ccccc2o1`, the melting point is reported as 167 to 169 °C.
With `Nc1nc(Cc2ccccc2)no1` the melting point was 142 to 145 °C.
`CNCC1CN(c2c(F)cc3c(=O)c(C(=O)O)cn(C4CC4)c3c2F)CCO1` (centres undefined) showed a melting point of 257 to 259 °C.
`O=C(O)CCCCCCCNC(=O)C(CS)Cc1ccccc1` (centres undefined) showed a melting point of 81 to 83 °C.
`CC(C)N(C(=O)CN1C(=O)C(C)(CC(=O)Nc2ccccc2)C(=O)N(c2ccc(Cl)cc2)c2ccccc21)c1ccccc1` (centres undefined) showed a melting point of 170 to 176 °C.
`COc1cc(/C=C/S(=O)(=O)CS(=O)(=O)/C=C/c2cc(OC)c(OC)c(OC)c2)cc(OC)c1OC` gave a melting point of 127 to 129 °C.
`Cc1c(C)c2c(c(C)c1N)C(c1ccc(F)cc1)C(C)(C)O2` (centres undefined) showed a melting point of 126 to 127 °C.
Work on `Oc1ccc(Oc2cccc(-c3c(Cc4ccccc4)cnc4c(C(F)(F)F)cccc34)c2)cc1` yielded a melting point of 55 to 60 °C.
`O=C(CC[N+](=O)[O-])c1ccccc1` showed a melting point of 59 to 62 °C.
For `COC(=O)C(Oc1ccc(C(F)(F)F)cc1)c1ccc(OCCOc2ccc(Cl)cc2)cc1` (centres undefined), the melting point was 95 to 97 °C.
`COCCNC(=O)CN1CCN(Cc2ccc3c(c2)NC(=O)C(C)O3)CC1` (centres undefined) showed a melting point of 111 to 142 °C.
In the case of `COC(=O)CCCOc1cc([N+](=O)[O-])c(CO)cc1OC`, the melting point is reported as 100 °C.
With `Cc1oc(-c2ccccc2)nc1COc1ccc(COc2ccc(Br)cc2CC(=O)O)cc1` the melting point was 162 to 163 °C.
Compound `CCc1ccc2oc3cc(C#N)cnc3c(=O)c2c1` has a melting point of 183 to 185 °C.
`Cc1cccc(C(=O)C(=O)c2ccccc2)c1C` showed a melting point of 61.5 to 62.5 °C.
Work on `O=C1NCCc2ccc(OCCCN3CCCN(c4cccc(Cl)c4Cl)CC3)cc21` yielded a melting point of 116 to 117 °C.
`COCC(=O)NCC1CCC(Nc2nc3c(s2)CCCc2ccc(F)cc2-3)CC1` (centres undefined) gave a melting point of 63 to 65 °C.
With `CN(C)CCOC(c1ccccc1)c1ccc(C(=O)NCCCCn2cnc3c(N)nc4ccccc4c32)cc1` (centres undefined) the melting point was 110 to 114 °C.
Compound `O=C(O)CCCCC(=NOCc1ccc(OCc2nc(-c3ccccc3)no2)cc1)c1ccccc1` has a melting point of 91 to 92 °C.
Compound `C[C@H]1C=CC2=C[C@@H](O)C[C@H](O)[C@@H]2[C@H]1CC[C@@H]1C[C@@H](O)CC(=O)O1` has a melting point of 161 to 163 °C.
`COc1ccc2c(c1)C13CCN(C#N)C(C2)C1CCC(=O)C3` (centres undefined) gave a melting point of 211 to 214 °C.
For `CCCN1C(=O)COc2cc(F)c(-n3nn[nH]c3=O)cc21`, the melting point was 145 to 148 °C.
Compound `CC(C)(CBr)c1cc(Cl)nnc1Cl` has a melting point of 86.5 to 88.5 °C.
In the case of `O=C(Nc1nccs1)C(CC1CCCC1)c1ccc([N+](=O)[O-])cc1` (centres undefined), the melting point is reported as 134 to 136 °C.
`CN1CCN(c2nc3sc4c(NCc5cccnc5)ncnc4c3c3c2COC(C)(C)C3)CC1` showed a melting point of 251 to 252 °C.
For `O=C1OCCC12Sc1ccc(S(=O)(=O)N3CCOCC3)cc1C2=O` (centres undefined), the melting point was 220 to 222 °C.
In the case of `CN1CC(CCCl)N(C)c2nc3ccccc3n2C1=O` (centres undefined), the melting point is reported as 158 to 159 °C.
`CCOC(=O)Nc1nc2c(c3c(CCNS(C)(=O)=O)n(C)nc13)CCCC2` showed a melting point of 214 to 215 °C.
Work on `CC(C)(C)OC(=O)CCc1csc(CCNc2nc(N)c3ncn(C4OC(CO)C(O)C4O)c3n2)c1` (centres undefined) yielded a melting point of 120 to 124 °C.
`CCCC1Sc2ccc(F)cc2C=C1c1ccc2c(c1)NC(=O)CO2` (centres undefined) showed a melting point of 161 to 162 °C.
For `O=c1c2ccccc2n(CCCCCl)c2ccc(Cl)cc12`, the melting point was 101 to 106 °C.
